Data: US20260041780A1, “ANTIBODY-DRUG CONJUGATE AND USE THEREOF” (MINGHUI PHARMACEUTICAL (HANGZHOU) LIMITED, priority 2022, published 2026)
pIC50: −log10 of the molar value.

Experiments:
Test in all cases: Inhibition of in vitro proliferation of tumor cells (CellTiter Glo)
Format in all cases: cell-based, human
NCI-H1975 = conditions: NCI-H1975, 120 h incubation
Procedure: (§1) Human-derived tumor cells in logarithmic growth phase were taken, trypsin-digested and resuspended using fresh complete culture medium, counted and adjusted to an appropriate concentration, and added into 96-well cell culture plate at 100 μL/well. The cell culture plate was placed in a 37° C., 5% CO2 incubator and incubated overnight. On the next day, different concentrations of ADC samples to be tested (with the highest final concentration of 1 μM, and 4-fold gradient dilution) or buffer control were added to the corresponding wells of the cell culture plate, and continued to be incubated in a CO2 incubator for 120 h. After equilibrated to room temperature, the test plate was analyzed by using a CellTiter Glo assay kit (Promega, G7558) and a multifunctional enzyme labeling instrument (Enspire 2300, PerkinElmer) to detect luminescence readings. The cellular inhibition rate was calculated according to the following equation: inhibition rate (%)=(1−(RLUADC−RLUblank)/(RLUbuffer−RLUblank))×100%, wherein, RLU represents Relative Luminescence Units. XLFit was utilized to plot the pharmacodynamic inhibition rate curve and to calculate the IC50 values (see Tables 4 and 5).

Calu-6 = conditions: Calu-6, 120 h incubation
Procedure: as §1

NCI-N87 = conditions: NCI-N87, 120 h incubation
Procedure: as §1

HepG2 = conditions: HepG2, 120 h incubation
Procedure: as §1

Control ADC2: antibody Ifinatamab conjugated with linker-payload MC-GGFG-DXd
pIC50 (NCI-H1975): 6.19
pIC50 (Calu-6): 6.90
pIC50 (NCI-N87): 6.54
pIC50 (HepG2): 6.66
